Measurements reported in patent US4517187A, “1,3,4,6,7-11b-Hexahydro-7-phenyl-2H-pyrazino[2,1-a]isoquinolines methods of preparation, and use as antidepressants” (Pennwalt Corporation, priority 1982, dated 1985).
Where a name gives a salt, the structure may show the parent alone.

Legend:
[1] = molecular target: T1, histamine-stimulated adenylate cyclase (Cavia porcellus, UniProt P47747); assay: in vitro inhibition of histamine-stimulated adenylate cyclase (ad. cyc H); type: biochemical; settings: smaller numbers indicate greater potency, read-out: ad cyc H rating (molar concentration required to inhibit by 50% the stimulation of adenylate cyclase observed after treatment with histamine)
T1 construct: by the method developed by Kanof and Greengard; from tissue; host or cells: brain homogenate (guinea pig hippocampus/neocortex, inferred from the cited method)

[2] = molecular target: binding of tritiated quinuclidinyl benzylate ([^3 H]-QNB) in brain; design: species or system rat; settings: in vitro; brain homogenates; read-out: (^3 H)QNB rating (molar concentration required to inhibit by 50% the binding of [^3 H]QNB)
[3] = molecular target: T2, specific binding of tritiated mepyramine ([^3 H]-mepyramine) in brain (Rattus norvegicus, UniProt P31390); assay: in vitro inhibition of the specific binding of [3H]-mepyramine in brain; settings: brain homogenates, read-out: (^3 H)mepyramine rating (molar concentration required to inhibit by 50% the binding of [^3 H]mepyramine)
T2 construct: rate brain homogenates; from tissue; host or cells: rat brain homogenate
T2 sequence (P31390 whole entry): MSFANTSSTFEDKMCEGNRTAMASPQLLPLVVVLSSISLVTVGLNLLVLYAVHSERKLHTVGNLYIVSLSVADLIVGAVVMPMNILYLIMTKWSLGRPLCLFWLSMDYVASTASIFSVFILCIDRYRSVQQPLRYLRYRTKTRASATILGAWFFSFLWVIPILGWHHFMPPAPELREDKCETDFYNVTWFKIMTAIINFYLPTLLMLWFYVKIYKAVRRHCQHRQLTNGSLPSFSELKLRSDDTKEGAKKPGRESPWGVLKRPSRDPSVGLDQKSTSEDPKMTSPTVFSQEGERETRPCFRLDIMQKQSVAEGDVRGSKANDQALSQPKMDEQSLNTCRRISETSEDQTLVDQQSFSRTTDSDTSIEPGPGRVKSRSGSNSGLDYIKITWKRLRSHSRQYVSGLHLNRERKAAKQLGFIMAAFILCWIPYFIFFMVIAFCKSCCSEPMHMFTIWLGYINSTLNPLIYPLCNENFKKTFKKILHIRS

T1 sequence (P47747 whole entry): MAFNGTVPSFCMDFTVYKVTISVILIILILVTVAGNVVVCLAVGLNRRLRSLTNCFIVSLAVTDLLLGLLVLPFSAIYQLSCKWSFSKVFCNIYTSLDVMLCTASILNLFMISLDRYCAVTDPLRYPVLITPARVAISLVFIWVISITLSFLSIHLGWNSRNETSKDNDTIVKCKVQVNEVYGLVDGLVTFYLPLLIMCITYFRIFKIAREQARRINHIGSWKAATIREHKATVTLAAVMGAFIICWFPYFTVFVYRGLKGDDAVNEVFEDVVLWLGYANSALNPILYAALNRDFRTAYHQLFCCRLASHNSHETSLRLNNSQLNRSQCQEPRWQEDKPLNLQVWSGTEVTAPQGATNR

Row | Structure (SMILES) | IC50 [1] [nM] | IC50 [2] [nM] | IC50 [3] [nM]
1 | CN1CCN2C[C@@H](c3ccccc3)c3ccccc3[C@@H]2C1 (relative stereo) [Example 1, cis-1,3,4,6,7,11b-Hexahydro-2-methyl-7-phenyl-2H-pyrazino[2,1-a]isoquinoline dihydrochloride] | 6800 | 250 | 20
2 | CN1CCN2C[C@@H](c3ccccc3)c3ccccc3[C@H]2C1 (relative stereo) [Example 2, trans-1,3,4,6,7,11b-Hexahydro-2-methyl-7-phenyl-2H-pyrazino[2,1-a]isoquinoline dihydrochloride] | > 10000 | 3300 | > 1000
3 | CCN1CCN2C[C@@H](c3ccccc3)c3ccccc3[C@@H]2C1 (relative stereo) [Example 3, cis-1,3,4,6,7,11b-Hexahydro-2-ethyl-7-phenyl-2H-pyrazino[2,1-a]isoquinoline dihydrochloride] | > 10000 | 1100 | 340
4 | c1ccc([C@@H]2CN3CCNC[C@H]3c3ccccc32)cc1 (relative stereo) [Example 4, cis-1,3,4,6,7,11b-Hexahydro-7-phenyl-2H-pyrazino[2,1-a]isoquinoline dihydrochloride] | > 10000 | 920 | > 1000
